Test results: patent publication US9590187B2, “Substituent-eliminable diketopyrrolopyrrole derivative, organic semiconductor material precursor solution, organic semiconductor material, and organic semiconductor material film” (RICOH COMPANY, LTD., priority 2013, dated 2017)

What was measured:
[1] = Evaluation of solubility in organic solvents (saturated solution after reflux, cooling to room temperature, filtration, drying); assay type: physicochemical; conditions: reflux 10 minutes, cooled to room temperature, stand 16 hours, 0.2-μm PTFE filter
Experimental: Add each of the compounds obtained in the above Examples 1-6 to each of toluene, THF, and chloroform until it gets undissolved. Agitate each solution for 10 minutes under solvent reflux, then cool it to room temperature, further agitate it for 1 hour, and allow it to stand for 16 hours. Filter the supernatant liquid with a 0.2-μm PTFE filter to obtain a saturated solution. Dry the solution under reduced pressures to calculate solubility of each compound against each solvent. Evaluation criteria are as follows.
A: Solubility is 0.5% by weight or more.
B: Solubility is 0.05% by weight or more and less than 0.5% by weight.
C: Solubility is 0.005% by weight or more and less than 0.05% by weight.
D: Solubility is less than 0.005% by weight.

[2] = Thermogravimetric measurement of the elimination reaction (EXSTAR 6200, nitrogen atmosphere); assay type: physicochemical; conditions: observed within 190 to 210° C.
Experimental: (§1) Put the above-prepared substituent-eliminable derivative No. 6 (5 mg, 0.10 mmol) in an aluminum pan and heat it to 300° C. at a rate of 10° C./min with a thermal analysis instrument (EXSTAR 6200 from Seiko Instruments Inc.) under nitrogen atmosphere. Thus, a dark purple solid (3.8 mg) is obtained. m/z=704.1 (M+H).
as §1, with “No. 9” for “No. 6”, “mg, […]” for “mg, 0.10 mmol)”, “to 250°” for “to 300°”, “of 20°” for “of 10°”, “(M+H). The thermogravimetric measurement result is shown in FIG. 3.” for “(M+H).”
Repeat the procedures in Example 4 except for replacing the substituent-eliminable derivative No. 6 with No. 16 (5 mg, 4.6 μmol). Thus, a dark purple specific compound (4.2 mg) is obtained. m/z=872.2 (M+H).

[3] = heated to 300° C. at 10° C./min

Structure (SMILES)	Decrease in weight (thermogravimetric) [2, 3]	Decrease in weight (thermogravimetric) ([2]; heated to 250° C. at 20° C./min)	Solubility in THF [1]	Solubility in Chloroform [1]	Solubility in Toluene [1]
CCCCC(CC)CN1C(=O)C2=C(c3ccc(-c4ccc(O)cc4)s3)N(CC(CC)CCCC)C(=O)C2=C1c1ccc(-c2ccc(O)cc2)s1 (stereo not drawn) [Specific Compound No. 6]	–	–	D (Solubility is less than 0.005% by weight.)	D (Solubility is less than 0.005% by weight.)	D (Solubility is less than 0.005% by weight.)
CCCCC(CC)CN1C(=O)C2=C(c3ccc(-c4cccc(O)c4)s3)N(CC(CC)CCCC)C(=O)C2=C1c1ccc(-c2cccc(O)c2)s1 (stereo not drawn) [Specific Compound No. 9]	–	–	D (Solubility is less than 0.005% by weight.)	D (Solubility is less than 0.005% by weight.)	D (Solubility is less than 0.005% by weight.)
CCCCC(CC)CN1C(=O)C2=C(c3ccc(-c4ccc(-c5cccc(O)c5)s4)s3)N(CC(CC)CCCC)C(=O)C2=C1c1ccc(-c2ccc(-c3cccc(O)c3)s2)s1 (stereo not drawn) [Specific Compound No. 16]	–	–	D (Solubility is less than 0.005% by weight.)	D (Solubility is less than 0.005% by weight.)	D (Solubility is less than 0.005% by weight.)

Now from value to compound, other results behind:

Decrease in weight (thermogravimetric) [2, 3]	Decrease in weight (thermogravimetric) ([2]; heated to 250° C. at 20° C./min)	Structure (SMILES)	Solubility in THF [1]	Solubility in Chloroform [1]	Solubility in Toluene [1]
21.5%	–	CCCCC(CC)CN1C(=O)C2=C(c3ccc(-c4ccc(OC(=O)OC(C)(C)C)cc4)s3)N(CC(CC)CCCC)C(=O)C2=C1c1ccc(-c2ccc(OC(=O)OC(C)(C)C)cc2)s1 (stereo not drawn) [Substituent-eliminable Derivative No. 6]	A (Solubility is 0.5% by weight or more.)	A (Solubility is 0.5% by weight or more.)	B (Solubility is 0.05% by weight or more and less than 0.5% by weight.)
–	21.2%	CCCCC(CC)CN1C(=O)C2=C(c3ccc(-c4cccc(OC(=O)OC(C)(C)C)c4)s3)N(CC(CC)CCCC)C(=O)C2=C1c1ccc(-c2cccc(OC(=O)OC(C)(C)C)c2)s1 (stereo not drawn) [Substituent-eliminable Derivative No. 9]	A (Solubility is 0.5% by weight or more.)	A (Solubility is 0.5% by weight or more.)	A (Solubility is 0.5% by weight or more.)
18.5%	–	CCCCC(CC)CN1C(=O)C2=C(c3ccc(-c4ccc(-c5cccc(OC(=O)OC(C)(C)C)c5)s4)s3)N(CC(CC)CCCC)C(=O)C2=C1c1ccc(-c2ccc(-c3cccc(OC(=O)OC(C)(C)C)c3)s2)s1 (stereo not drawn) [Substituent-eliminable Derivative No. 16]	A (Solubility is 0.5% by weight or more.)	A (Solubility is 0.5% by weight or more.)	A (Solubility is 0.5% by weight or more.)
